This is an account of results in US20030013650A1, “VR-OAC, an osomotically activated channel protein, nucleic acids encoding it, and uses thereof” (The Rockefeller University, priority 2000, published 2003).

For test [1], the system named is VR-OAC. Nature of the test: Whole-cell and patch recordings from VR-OAC-transfected CHO-K1 cells. Type of test: cell-based, chicken or rat. Also noted: effect on VR-OAC-transfected cells (whole-cell current) / effect on whole-cell current: dose or concentration left out as unconfirmed. As to conditions: for VR-OAC currents on stimulation with hypotonic solution: after incubation in 10 μM thapsigargin and 20 μM SKF 96365 (combined). The protocol: Electrophysiological characterization of VR-OAC was performed at room temperature on CHO-K1 cell lines stably or transiently transfected with one of four expression vectors, pcDNA3.1 (Invitrogen) with inserts bearing chicken or rat VR-OAC, eGFP-OAC, or eGFP-ΔOAC. These cells were selected because untransfected HEK 293 cells responded to hypotonic stress and Xenopus laevis oocytes are known to respond to membrane stretch (Yang and Sachs, 1989). Cells plated on glass-bottom Petri dishes were observed through a 40× water-immersion objective lens on an inverted microscope (Aviovert 100 M, Carl Zeiss) equipped with Nomarski optics. We recorded whole-cell and patch currents with a voltage-clamp amplifier (EPC-7, List-Electronic, Darmstadt-Eberstadt, Germany). Voltage stimuli were generated and responses recorded with a computer (P6400 GX1, Dell) running LabVIEW 5.0 software (National Instruments, Austin, Tex.). Voltage and current responses were low-pass filtered at 2 kHz with an eight-pole Bessel filter and sampled at 5 kHz.
Tight-seal pipettes were bent to permit an orthogonal approach to a cell's surface and heat-polished to give resistances of 3-5 MΩ. Internal solutions typically contained 117 mM NaCl, 5 mM HEPES, 1 mM EDTA, and mannitol to achieve isotonicity. EDTA was omitted in the pipette solution during experiments in which the bath solution also lacked EDTA. Pipette and cell capacitance were largely compensated; series resistance compensation ranged from 10% to 60%. Ground reference was provided by an Ag—AgCl electrode through a 150 mM KC1 agar bridge.
A fluid-jet stimulus was delivered by applying a pressure pulse of about 3 kPa to the rear of a glass pipette with a tip diameter of 5-10 μm. Filled with saline solution identical to that in the recording chamber, the pipette's tip was oriented perpendicular to the bottom of the chamber and placed roughly 10 μm above the target cell. The onset and termination of the jet were regulated by a solenoid valve (Picospritzer II, General Valve Corporation, Fairfield, N.J.) under computer control. During whole-cell recording, cells were maintained in isotonic or slightly hypertonic solutions. Mechanical stimulation was accomplished by perfusion of hypotonic solutions. […] Isotonic and hypertonic solutions were prepared by supplementing the standard hypotonic solution with mannitol to respectively 295 mmol kg−1 and 340 mmol kg−1.
In studies of the effects of Ca2+ and Gd3+ on whole-cell currents, hypotonic test solutions included respectively 2 mM CaCl2 or […] GdCl3. Because carboxylic-acid Ca2+ chelators are known to compromise the capacity of GdC13 to block mechanosensitive channels (Caldwell et al., 1998), EDTA was excluded from the latter medium and the pipette solution. […]

Test [2] concerns VR-OAC. Put plainly: Ca2+ imaging (fluo-4) of CHO cells transfected with VR-OAC or variants. Type of test: cell-based, rat and chicken. As to conditions: for fluo-4 fluorescence upon exposure to hypotonic medium: stores depleted with 10 μM thapsigargin and potentiation channels blocked with 20 μM SKF 96365 (combined); for response of VR-OAC-transfected cells to ligand (fluo-4 Ca2+ imaging): chicken and rat VR-OAC-transfected cells, resiniferatoxin 0.2 μM and 5 μM, anandamide 5 μM and 25 μM. The text has this: (§1) To confirm that VR-OAC constitutes an ion channel and to determine the stimulus that gates it, we expressed the rat and chicken proteins in stably transfected Chinese hamster ovary (CHO) cells. Untransfected CHO cells and a line stably transfected with a VR1-expressing plasmid served as controls. We loaded VR-OAC-expressing cells with the Ca^2+ indicator fluo-4 AM and used conventional and confocal icroscopy to monitor changes in fluorescence, which reflected alterations in the ntracellular Ca^2+ concentration.
The complete cDNAs of rat VR-OAC, chicken VR-OAC, and rat VR1 were subcloned into the eukaryotic expression vector pcDNA3.1 (Invitrogen, Carlsbad, Calif.). CHO-K1 cells (ATCC, Manassas, Va.) were transfected with these vectors and selected with G418 (Life Technology, Gaithersburg, Md.). Stable clones that expressed the mRNAs were identified by Northern blot analysis and, for VR1, by response to ligand.
For Ca2+ imaging, cells were loaded for 30 min at room temperature in […] fluo-4 AM ester (Molecular Probes, Eugene, Oreg.) in isoosmotic Hille's saline solution (130 mM Na^+, 2.5 mM K^+, 2 mM Ca2+, 1 mM Mg2+, 138.5 mM Cl−, 20 mM D-glucose, and 10 mM HEPES at pH 7.3; Babcock et al., 1997) containing 2 mM probenecid. The cells were then washed and incubated for 15 min at 30° C. to promote deacetylation of internalized fluo-4 AM ester.
Confocal analysis was performed with an MRC-1024ES system (Bio-Rad, Hercules, Calif.) mounted on an inverted microscope (Zeiss Axiovert 135TV, Carl Zeiss, Jena, Germany). Confocal image series were collected using Lasersharp software (BioRad) running on a Poweredge 2300 computer (Dell Computer, Round Rock, Tex.). Images were also recorded with a cooled digital camera (Micromax, Princeton Instruments Inc., Princeton, N.J.) atop a Zeiss Axioplan microscope. These images were analyzed using IPLab software (Scanalytics Inc., Fairfax, Va.). Analysis of single-frame or single-cell integrated signal density was performed on Macintosh computers running NIH Image software (version 1.61; O'Neill et al., 1989).
Solutions with different osmotic strengths were created by adding water or mannitol to Hille's saline solution. Unless otherwise noted, the Ca2+ concentration of all solutions was held constant at 2 mM. The resultant osmolalities were verified with a vapor-pressure osmometer (Vapro 5520, Wescor Inc., Logan, Utah). The test solutions included a graded series of hypotonic solutions (with 220 mmol kg-1 the lowest osmolality), a hypertonic solution (330 mmol kg-1), isotonic solutions at 295 mmol kg-1 with graded concentrations of Na+ (with 50 mM the lowest concentration), and hypotonic solutions containing 100 μM, 250 μM, and 500 μM GdCl3. Ligands used for stimulation were resiniferatoxin (Sigma Chemicals, St. Louis, Mo.) at 0.2 μM and 5 μM and anandamide (Cayman Chemical, Ann Arbor, Mich.) at 5 μM and 25 μM. To test whether VR-OAC is directly gated by increases in temperature, we exposed dishes containing fluo-4-loaded cells to temperatures ranging from room temperature to 30° C., 37° C., 40° C., 45° C., 50° C., and 55° C. Images were acquired during the thermal stimulus series at intervals of 60 s for up to 10 min after the start of heating. A series of calibration experiments confirmed that this interval ensured proper thermal equilibration. A similar procedure was used to test the response to hypotonicity at various temperatures.

A further test addresses T1, rat VR1 (Rattus norvegicus, UniProt O35433).
T1 construct: The complete cDNAs of rat VR-OAC, chicken VR-OAC, and rat VR1 were subcloned into the eukaryotic expression vector pcDNA3.1; expressed in transfected cells
Put plainly: Ca2+ imaging (fluo-4) of control CHO cells expressing rat VR1. Type of test: cell-based. As to conditions: control CHO line expressing rat VR1; 200 nM resiniferatoxin (FIG. 10A legend).
Excerpt: as §1
The complete cDNAs of rat VR-OAC, chicken VR-OAC, and rat VR1 were subcloned into the eukaryotic expression vector pcDNA3.1 (Invitrogen, Carlsbad, Calif.). CHO-K1 cells (ATCC, Manassas, Va.) were transfected with these vectors and selected with G418 (Life Technology, Gaithersburg, Md.). Stable clones that expressed the mRNAs were identified by Northern blot analysis and, for VR1, by response to ligand. […]
Confocal analysis was performed with an MRC-1024ES system (Bio-Rad, Hercules, Calif.) mounted on an inverted microscope (Zeiss Axiovert 135TV, Carl Zeiss, Jena, Germany). […] Images were also recorded with a cooled digital camera (Micromax, Princeton Instruments Inc., Princeton, N.J.) atop a Zeiss Axioplan microscope. These images were analyzed using IPLab software (Scanalytics Inc., Fairfax, Va.). […]

The subject of the next test is C. elegans mutant osm-9. Put plainly: Transgenic rescue of C. elegans mutant osm-9 (osmotic avoidance, nose touch, odorant avoidance). As to conditions: for rescue of lack of osmotic avoidance and lack of response to nose touch: expressed in ASH neurons (sra6 promotor) of osm-9 worms. Type of test: in vivo, Caenorhabditis elegans. Here is the method:
The coding region of the rat VR-OAC cDNA was cloned into the C. elegans expression vector pPD49.26 that contained the sra6 promotor. This promotor directs expression in the ASH and ASI neurons. Purified DNA was injected into the gonad of hermaphroditic worms, strain N2, together with the marker gene elt-2/green fluorescent protein (GFP) which directs expression of GFP in C. elegans intestinal cells. Transgenic offspring could be identified by GFP fluorescence, and VR-OAC transgenic lines of worms were generated. Likewise, several transgenic lines of worms were established and maintained on an osm-9 (ky-10 allele) genetic background. In these worms, an osmotic avoidance in response to hyperosmotic stimuli was clearly present, as was sensitivity to nose touch (FIGS. 15A and 15B). The avoidance reactions were assayed on single animals as previously described^34. Odorant avoidance in response to octanone was not present. […] In order to confirm that the observed rescue is mediated by the ASH neuron, both ASH neurons were laser ablated in osm-9/VR-OAC transgenic (tg) worms. This procedure completely abolished rescue (FIGS. 15A and 15B). In order to visualize subcellular localization of the VR-OACtg in the ASH neuron, GFP was tagged to the C-terminus of VR-OAC. The tagged protein could be localized to the cilia of the ASH neuron in the worm nose where fluorescence was stronger than in any other part of this neuron. Rescue was not impaired in VR-OAC/GFPtg osm-9 worms (FIGS. 15A and 15B).
In order to understand better the specificity of the observed rescue, VR-OACtg worms were crossed to C. elegans mutants which genetically define the alternate mechanosensory pathway. VR-OACtg worms of the following mutant lines were generated: ocr-2, odr-3, glr-1, osm-10 and double-mutants of the former with osm-9. These lines were tested for osmotic avoidance, nose touch and odorant avoidance. […] In another control experiment addressing the specificity of the observed rescue, we expressed rat VR1 under the control of the sra6 promotor in ASH neurons of wild type and osm-9 worms. No rescue was observed. However, in osm-9 as well as in wild type worms tg for VR1 there was a strong avoidance response to vanilloids which was absent in non-tg worms.
Next, we wanted to use the transgenic rescue of osm-9 by VR-OAC as an in-vivo model in order to better understand structure-function relationships of VR-OAC. Gross deletions were constructed lacking either the N-terminal intracellular domain (aminoacid [AA] 1-410 of VR-OAC), the C-terminal intracellular domain (AA 741-781 of VR-OAC) or both. Three lines of worms were established for each of the gross deletions. The line with the most pronounced rescue as an indication of highest expression level of tg was investigated more in depth. […] The N-terminus and the C-terminus thus appear dispensable for the response to osmotic and mechanical stimuli, and, most likely, for proper intracellular transport in the ASH neuron. In addition to these gross deletions, we wanted to learn more about the structure-function relationship of strategically positioned single amino acid exchanges in the pore-loop domain of VR-OAC. As for the gross deletions, three lines of worms were generated for each point mutation. […]

Entries after “also recorded” stand apart in the source; their conditions may differ.

T1 sequence (O35433 whole entry): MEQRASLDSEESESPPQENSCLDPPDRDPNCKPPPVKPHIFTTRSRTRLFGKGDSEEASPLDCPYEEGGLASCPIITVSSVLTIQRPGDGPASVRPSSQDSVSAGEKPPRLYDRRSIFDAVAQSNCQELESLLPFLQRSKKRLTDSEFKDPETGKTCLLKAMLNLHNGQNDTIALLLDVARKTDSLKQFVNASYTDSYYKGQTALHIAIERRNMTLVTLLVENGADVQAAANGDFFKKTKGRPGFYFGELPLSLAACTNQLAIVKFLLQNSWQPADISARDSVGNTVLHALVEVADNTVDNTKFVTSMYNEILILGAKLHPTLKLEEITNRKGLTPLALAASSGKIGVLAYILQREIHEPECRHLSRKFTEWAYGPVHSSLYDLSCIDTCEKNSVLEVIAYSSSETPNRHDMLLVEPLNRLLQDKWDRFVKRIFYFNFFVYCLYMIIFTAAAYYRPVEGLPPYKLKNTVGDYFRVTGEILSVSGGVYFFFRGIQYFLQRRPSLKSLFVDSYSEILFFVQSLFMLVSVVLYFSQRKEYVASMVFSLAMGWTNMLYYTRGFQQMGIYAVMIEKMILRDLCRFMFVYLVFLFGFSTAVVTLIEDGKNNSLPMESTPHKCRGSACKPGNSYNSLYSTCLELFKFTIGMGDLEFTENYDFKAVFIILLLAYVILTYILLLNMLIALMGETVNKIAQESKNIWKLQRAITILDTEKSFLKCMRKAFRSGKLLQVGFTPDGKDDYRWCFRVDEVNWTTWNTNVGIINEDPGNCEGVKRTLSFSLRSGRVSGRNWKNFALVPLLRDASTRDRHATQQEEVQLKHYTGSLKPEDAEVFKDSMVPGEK

For the molecule `[Gd+3]` [Gd^3+, Gadolinium ion], in the test with VR-OAC [1] (Gd^3+ extracellular, within the first few minutes), the “effect on VR-OAC-transfected cells (whole-cell current)” value is given as “resembled that of Ca^2+”. Moreover, the “effect on whole-cell current” value in the test on VR-OAC [1] (Gd^3+, more protracted exposure) is on record as “irreversibly abolished the whole-cell current”.
Turning to `COc1ccc(CCCOC(Cn2ccnc2)c2ccc(OC)cc2)cc1` (stereo not shown) [SKF 96365], the “VR-OAC currents on stimulation with hypotonic solution” value with VR-OAC [1] is on record as “displayed characteristic VR-OAC currents”. The “fluo-4 fluorescence upon exposure to hypotonic medium” value with VR-OAC [2] is “does not increase”.
Turning to `CCCCC/C=C\C/C=C\C/C=C\C/C=C\CCCC(=O)NCCO` [anandamide], the “response of VR-OAC-transfected cells to ligand (fluo-4 Ca2+ imaging)” value in the test on VR-OAC [2] is “responded neither”.
Take `C=C(C)[C@]12C[C@@H](C)[C@@]34O[C@](Cc5ccccc5)(O[C@@H]1[C@@H]3C=C(COC(=O)Cc1ccc(O)c(OC)c1)C[C@]1(O)C(=O)C(C)=C[C@@H]41)O2` [resiniferatoxin]: the “intracellular Ca^2+ concentration / Ca^2+ influx (fluo-4 fluorescence)” value on rat VR1 was “strong Ca^2+ influx; also recorded: increases the intracellular Ca^2+ concentration”. The “response of VR-OAC-transfected cells to ligand (fluo-4 Ca2+ imaging)” value in the test with VR-OAC [2] was “responded neither”.
For `C/C=C(/C)C(=O)O[C@H]1C(C)=C2[C@H]([C@@H]1OC(=O)CCCCCCC)[C@@](C)(OC(C)=O)C[C@H](OC(=O)CCC)[C@@]1(O)[C@H]2OC(=O)[C@@]1(C)O` [thapsigargin], the “VR-OAC currents on stimulation with hypotonic solution” value with VR-OAC [1] is on record as “displayed characteristic VR-OAC currents”. Further, the “fluo-4 fluorescence upon exposure to hypotonic medium” value in the test with VR-OAC [2] is given as “does not increase”.
Take “rat VR1: rat vanilloid receptor 1, expressed as specificity control”: the “rescue of lack of osmotic avoidance and lack of response to nose touch” value (“rescue of lack … to nose touch” for short) in the test on C. elegans mutant osm-9 is given as “No rescue”.
Consider “rat VR-OAC: rat orthologue of VR-OAC, 871 amino acids”, for which the “rescue of lack … to nose touch” value in the test with C. elegans mutant osm-9 was “partial rescue”. In the test with C. elegans mutant osm-9 (osm-9 worms, octanone), the “rescue of lack of odorant avoidance” value was “no rescue”.

B1: VROAC without both its N-terminus and C-terminus: VR-OAC deletion of both N-terminal (AA 1-410) and C-terminal (AA 741-781) regions (protein, UniProt Q9HBA0 411-740, looked up, fragment)
chain: YGPVYSSLYDLSSLDTCGEEASVLEILVYNSKIENRHEMLAVEPINELLRDKWRKFGAVSFYINVVSYLCAMVIFTLTAYYQPLEGTPPYPYRTTVDYLRLAGEVITLFTGVLFFFTNIKDLFMKKCPGVNSLFIDGSFQLLYFIYSVLVIVSAALYLAGIEAYLAVMVFALVLGWMNALYFTRGLKLTGTYSIMIQKILFKDLFRFLLVYLLFMIGYASALVSLLNPCANMKVCNEDQTNCTVPTYPSCRDSETFSTFLLDLFKLTIGMGDLEMLSSTKYPVVFIILLVTYIILTFVLLLNMLIALMGETVGQVSKESKHIWKLQWATT
For the molecule B1, the “rescue of lack … to nose touch” value in the test on C. elegans mutant osm-9 is on record as “still rescues”.
